Experimental data reported in the supplement of paper PMC11208160.

Assay: recombinant UMI read abundance after kanamycin selection (control-corrected) (log10(CPM+1)); higher = more efficient recombination; extreme values may be limits of the assay; sequences stand for … in AGTGCAGAGAAAATCGGCCAGTTTTCTCTGCCTGCAGTCCGCATGCCGTGGGACCCCTTGGGTTCTAACCTGTTGCCTAGATTTATGCAGCGGACTGCCTTTCTCCCAAAGTGATAAACCGG…AGGTTGGTTTCACT; site = the 11-nt donor
Outline: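 After plating on IPTG (0.07 mM) plus kanamycin, or unselected, in two replicates, recombinant UMIs were PCR-amplified across the donor–target junction and sequenced. The cells were Escherichia coli co-electroporated with a UMI-tagged donor and donor-binding-loop pair library and a target plasmid with a fixed target and T7-inducible IS621 bridge recombinase. Values are log10(CPM+1), with CPM averaged over replicates and scaled by control-derived factors.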
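Also: IS621 bridge recombinase in Escherichia coli cells against a fixed T5 target plasmid.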

| Sequence | recombinant UMI read abundance (log10) |
| --- | --- |
| ATTAGGCCATGGACCGGTTTTCCCGGTAATCCGTATTTGAC (site ATGAGGCCTGT) | 0 |
| GGGTAGACATGGACCGGTTTTCCCGGTAATCCGTATTTGCC (site GGATAGACTGG) | 2.81 |
| CGTGGAACATGGACCGGTTTTCCCGGTAATCCGTATTTGTG (site CGTGGAACTGA) | 0 |
| ACATTCTCATGGACCGGTTTTCCCGGTAATCCGTATTTGCC (site ACATTCTCTGG) | 1.63 |
| CGGGAGTCATGGACCGGTTTTCCCGGTAATCCGTATTTGCA (site CGGGAGTCTAG) | 1.74 |
| GAAGATTCATGGACCGGTTTTCCCGGTAATCCGTATTTGGT (site GAAGATTCTAA) | 0.995 |
| GATTGGACATGGACCGGTTTTCCCGGTAATCCGTATTTGCC (site GATTGGACTGG) | 2.68 |
| CGTAACACATGGACCGGTTTTCCCGGTAATCCGTATTTGCC (site CGTAACACTGG) | 2.01 |
| ATGGAGGCATGGACCGGTTTTCCCGGTAATCCGTATTTGTG (site CTGGAGGCTCA) | 0.764 |
| CACTAGGCATGGACCGGTTTTCCCGGTAATCCGTATTTGAT (site CACTAGGCTAT) | 1.33 |
| GGGGCTCCATGGACCGGTTTTCCCGGTAATCCGTATTTGCA (site GGGGCACCTTG) | 0.0623 |
| CCCGATCCATGGACCGGTTTTCCCGGTAATCCGTATTTGCA (site CCCGTTCCTTG) | 0 |
| CCTAATACATGGACCGGTTTTCCCGGTAATCCGTATTTGGC (site CCTAAAACTGC) | 0.00801 |
| CAGTCGTCATGGACCGGTTTTCCCGGTAATCCGTATTTGGG (site CAGTCGACTCC) | 0.00913 |
| CAAGCAGCATGGACCGGTTTTCCCGGTAATCCGTATTTGTT (site CAAGCAGCTAT) | 1.65 |
| ATCCAAGCATGGACCGGTTTTCCCGGTAATCCGTATTTGAG (site ATCCAAGCTGT) | 0 |
| CATGGCCCATGGACCGGTTTTCCCGGTAATCCGTATTTGTT (site CAGGGCCCTAA) | 0.0418 |
| AGGTAGACATGGACCGGTTTTCCCGGTAATCCGTATTTGCC (site AGGAAGACTTG) | 0 |
| TGTACACCATGGACCGGTTTTCCCGGTAATCCGTATTTGAT (site TGTACACCTAT) | 0.00557 |

| Sequence | recombinant UMI read abundance (log10) |
| --- | --- |
| GAAGTGTCATGGACCGGTTTTCCCGGTAATCCGTATTTGAA (site GAAGTGTCTTT) | 3.13 |
| ATTGAGACATGGACCGGTTTTCCCGGTAATCCGTATTTGGT (site ATTGAGGCTAC) | 0.186 |
| GTCTGATCATGGACCGGTTTTCCCGGTAATCCGTATTTGGG (site GTCTGATCTCC) | 0.011 |
| GCGGAGCCATGGACCGGTTTTCCCGGTAATCCGTATTTGGG (site GCGGAGCCTCC) | 0.0323 |
| CTAGTATCATGGACCGGTTTTCCCGGTAATCCGTATTTGAC (site CTTTTATCTGT) | 1 |
| TAGTAATCATGGACCGGTTTTCCCGGTAATCCGTATTTGCG (site TAGAAATCTCG) | 1.56 |
| GGTATGGCATGGACCGGTTTTCCCGGTAATCCGTATTTGCA (site GGTATGGCTTG) | 1.9 |
| CTGCTACCATGGACCGGTTTTCCCGGTAATCCGTATTTGGT (site CTGCTACCTAC) | 0.00854 |
| CTAGTATCATGGACCGGTTTTCCCGGTAATCCGTATTTGAC (site CTAGTAACTCT) | 0.0077 |
| GCTCCAACATGGACCGGTTTTCCCGGTAATCCGTATTTGTA (site GCTCCAACTTA) | 0.877 |
| CCCAAGTCATGGACCGGTTTTCCCGGTAATCCGTATTTGGG (site CCCAAGTCTCC) | 2.38 |
| TCCAATTCATGGACCGGTTTTCCCGGTAATCCGTATTTGAC (site TCCAATTCTGC) | 0 |
| AGCGTAGCATGGACCGGTTTTCCCGGTAATCCGTATTTGTT (site AGCATAGCTAA) | 0.838 |
| CGTCGAACATGGACCGGTTTTCCCGGTAATCCGTATTTGTT (site CGTAGAACTAA) | 0 |
| CTACAAACATGGACCGGTTTTCCCGGTAATCCGTATTTGGA (site CTACTAACTTC) | 0.313 |
| CGAATTCCATGGACCGGTTTTCCCGGTAATCCGTATTTGTT (site CGAATTCCTAA) | 0.99 |
| CGATGATCATGGACCGGTTTTCCCGGTAATCCGTATTTGCT (site CGATAATCTAG) | 2.33 |
| TATCAAACATGGACCGGTTTTCCCGGTAATCCGTATTTGGC (site TATCAAACTGC) | 0 |
| ACTGTATCATGGACCGGTTTTCCCGGTAATCCGTATTTGAA (site ACTGTATCTTT) | 1.99 |

| Sequence | recombinant UMI read abundance (log10) |
| --- | --- |
| AAGCACGCATGGACCGGTTTTCCCGGTAATCCGTATTTGAG (site AAGCACGCTCG) | 0.644 |
| TTGTGAGCATGGACCGGTTTTCCCGGTAATCCGTATTTGGT (site TTGTGAGCTAC) | 0.701 |
| CTAGAATCATGGACCGGTTTTCCCGGTAATCCGTATTTGTC (site CTAGAATCTGA) | 2.71 |
| GCTACGTCATGGACCGGTTTTCCCGGTAATCCGTATTTGTT (site GTTACGTCTAA) | 0.0153 |
| GCGAAGCCATGGACCGGTTTTCCCGGTAATCCGTATTTGGG (site GCGAAGTCTCC) | 0.00693 |
| CGGGAACCATGGACCGGTTTTCCCGGTAATCCGTATTTGAT (site CGGGAAGCTAT) | 0 |
| AGGGCTACATGGACCGGTTTTCCCGGTAATCCGTATTTGAC (site AGGGCTACTGT) | 2.55 |
| CGGGAAACATGGACCGGTTTTCCCGGTAATCCGTATTTGAT (site CGGGAATCTAT) | 1.74 |
| AAGGAATCATGGACCGGTTTTCCCGGTAATCCGTATTTGCG (site TAGGAATCTCG) | 3.08 |
| CAAGGAGCATGGACCGGTTTTCCCGGTAATCCGTATTTGCT (site CAAGCAGCTAG) | 2.16 |
| GGTGTGCCATGGACCGGTTTTCCCGGTAATCCGTATTTGAC (site GGTGTGCCTGT) | 0 |
| CCTAGTACATGGACCGGTTTTCCCGGTAATCCGTATTTGGC (site CCTAGTACTGC) | 0 |
| TATGTAACATGGACCGGTTTTCCCGGTAATCCGTATTTGCT (site GATGTAACTAG) | 1.67 |
| TTTGCGGCATGGACCGGTTTTCCCGGTAATCCGTATTTGCT (site TTTGCGGCTGG) | 0 |
| CCCTTCCCATGGACCGGTTTTCCCGGTAATCCGTATTTGGG (site CCCTTCTCTCC) | 0.0121 |
| GCGAAGCCATGGACCGGTTTTCCCGGTAATCCGTATTTGGG (site GCGAAGCCTAC) | 0 |
| AGTGCCACATGGACCGGTTTTCCCGGTAATCCGTATTTGAG (site AGTGCCACTCT) | 0.4 |
| TTGCCGTCATGGACCGGTTTTCCCGGTAATCCGTATTTGGC (site TTGCCGTCTGC) | 0 |
| TCCTCGCCATGGACCGGTTTTCCCGGTAATCCGTATTTGTT (site TCCTCGCCTAA) | 0.0142 |
